In series [1] the test system is human acute myelogenous leukemia cell line HL-60. The series can be described thus: Ability to induce differentiation of HL-60 cells (oxygen radical production after phorbol ester stimulation, WST-1). Type of series: cell-based. As to conditions: 72 hours incubation, then WST-1 and phorbol 12,13-didecanoate for 4 hours, absorbance at 450, read-out: EC50 (50%-maximal effect concentration), induction of HL-60 differentiation. An excerpt: It has been known that human acute myelogenous leukemia cell line HL-60 is differentiated into a neutrophil-like cell by active form of vitamin D. Thus, the cells after the differentiation begin to express a surface marker such as CD11 and CD32 and, at the same time, they produce oxygen radical by stimulation with a phorbol ester. In this test, the above-mentioned property was utilized to assess an ability to induce the differentiation of HL-60 cell of the compounds of the present invention mentioned in the Examples and maxacalcitol using as an indicator the amount of oxygen radical produced by stimulation with a phorbol ester whereby a vitamin D3 activity was compared and investigated. When commercially available reagents and kits were used, they were used according to the indications attached thereto.
(Procedure) HL-60 cells (supplied from ATCC) were seeded on a 96-well plate at 5×10^3 cells/100 μL/well and a test compound in two-fold dilution series from 10^−7 M was added to the second to the twelfth rows (maximum concentration: the second row). The first row was used for blank. Maxacalcitol was added to lines A and B and the compound of the present invention was added to lines C and D. After incubation for 72 hours under a moisturized condition in the presence of 5% CO2 at 37° C. using a CO2 incubator, 101 μL of PBS containing 50 mM WST-1 (manufactured by Takara Bio) and 10 μM phorbol 12,13-didecanoate (manufactured by Sigma) were added to each well followed by incubating for 4 hours more. Absorbance (reference wavelength: 655 nM) at 450 nM of a WST-1 formazan dye generated by conversion from WST-1 by oxygen radical produced from the differentiated HL-60 cells was measured by a Benchmark microplate reader (manufactured by BioRad). An absorbance meter control software MPM 3 (manufactured by BioRad) was used and, from a concentration-absorbance curve, the 50%-maximal effect concentration (hereinafter, referred to as “EC50”) of each was determined by a logistic curve regression.
A general note: Tetrazolium dyes change colour on reduction, which living cells bring about.

A short description of series [2]: Action to raise calcium concentration in serum, repeated percutaneous administration. Type of series: in vivo, rat. As to conditions: male SD rats, percutaneous 33 μg/200 μL/kg/day once daily for seven days, blood 24 hours after final administration. As for the experimental part:
A solution of the compound of the present invention mentioned in Example 1 or maxacalcitol in ethanol containing 0.3% of DMSO was repeatedly subjected to a percutaneous administration (33 μg/200 μL/kg/day) for seven days once daily onto the back of male rats (7 weeks of age) of the SD strain. An ethanol solution containing 0.3% of DMSO was administered to a control group. At 24 hours after the final administration, blood was collected and calcium concentration in serum was measured.

Series [3] in a line: Action to raise the urinary excretion of calcium (1), repeated percutaneous administration. The format is in vivo, rat. The note with it: male SD rats, percutaneous 0.33, 3.3 and 33 μg/kg/day once daily for three days, urine collected every 24 hours, compared with control. The protocol: Open triangles show a control; open squares show the case where 0.33 μg/kg of the compound of Example 1 was administered; open rhombuses show the case where 3.3 μg/kg of the compound of Example 1 was administered; open circles show the case where 33 μg/kg of the compound of Example 1 was administered; black squares show the case where 0.33 μg/kg of maxacalcitol was administered; black rhombuses show the case where 3.3 μg/kg of maxacalcitol was administered; and black circles show the case where 33 μg/kg of maxacalcitol was administered.
A solution of the compound of the present invention mentioned in Example 1 or maxacalcitol in ethanol containing 0.3% of DMSO was repeatedly subjected to a percutaneous administration (0.33, 3.3 and 33 μg/200 μl/kg/day) for three days once daily onto the back of male rats (7 weeks of age) of the SD strain. An ethanol solution containing 0.3% of DMSO was administered to a control group. Calcium concentration in urine collected every 24 hours after administration on each day was measured and multiplied by the amount of urine to calculate the urinary excretion of calcium.

A short description of series [4]: Metabolic rate in human liver microsome. Type of series: in vitro ADME. As to conditions: pooled human liver microsome, 1 mg/mL protein, NADPH production system, pH 7.4, 37° C., HPLC. As for the experimental part:
Metabolic rates of the compounds of the present invention mentioned in Examples and maxacalcitol in human liver microsome were compared and investigated.
As to the pooled human liver microsome (HHM-0323), those manufactured by Tissue Transformation Technologies were used. A 0.25M potassium phosphate buffer (pH 7.4) (200 μL), 5 μL of a 250 μM solution of each compound to be tested in DMSO, 50 μL of an NADPH production system (where 20 mg of (β-NADP^+, 70 mg of glucose-6-phosphate, 40 units of glucose-6-phosphate dehydrogenase and 20 mg of magnesium chloride were dissolved in 1 mL of distilled water) and 220 μL of distilled water were added to a microtube and the mixture was subjected to a preincubation for 5 minutes at 37° C. Reaction was started by addition of 25 μL of human liver microsome (final concentration of protein: 1 mg/mL). Incubation was performed for 2, 10, 30 or 60 minutes and the reaction was stopped by addition of 500 μL of acetonitrile. After centrifugation at 13,000 rpm for 5 minutes, each test compound in the supernatant (25 μL) was measured by an HPLC under the following conditions.
Inertsil ODS-3 (4.6×150 mm; GL Science) was used as a column. With regard to mobile phase, a solution A (acetonitrile/0.1% aqueous solution of ammonium acetate=10/90) and a solution B (acetonitrile/0.1% aqueous solution of ammonium acetate=90/10) were used under the linear gradient conditions mentioned in Table 4. Column temperature, flow rate and wavelength for detection were set at 40° C., 1.0 mL/min. and UV 270 nm, respectively.
From the result of measurement by the above-mentioned HPLC, metabolic rates of the test compounds were calculated.
On the technique in general: Liver microsomes are vesicles of endoplasmic reticulum, rich in cytochrome P450 enzymes.

A short description of series [5]: Action to raise the urinary excretion of calcium (2), intravenous administration. Type of series: in vivo, rat. The note with it: male SD rats, intravenous 22.4 nmol/kg; for Urinary excretion of calcium: urine collected during 24 hours after administration; for Ratio of urinary excretion of calcium (to Control): urine collected during 24 hours, relative to control group. The protocol: The compound of the present invention mentioned in Examples 3 or 8, or maxacalcitol (22.4 nmol/kg) was subjected to an intravenous administration to male rats (7 weeks of age) of the SD strain. A physiological saline containing 0.1% of Triton X 100 was administered to a control group. Calcium concentration in urine collected during 24 hours after the administration was measured and urinary excretion of calcium ([calcium concentration in urine]×[amount of urine]) and ratio of urinary excretion of calcium based on the control group ([calcium amount in urine upon administration of the compound to be tested]/[calcium amount in urine in the control group]) were calculated.

Take `C=C1/C(=C\C=C2/CCC[C@]3(C)[C@@H]([C@H](C)OC(=O)CCC(C)(C)O)CC[C@@H]23)C[C@@H](O)C[C@@H]1O` [Compound of Example 1, (1S,3R,20S)-20-(4-Hydroxy-4-methyl-pentanoyloxy)-9,10-secopregna-5Z,7E,10(19)-trien-1,3-diol]: in series [1], the EC50 amounted to 2 nM. Moreover, in series [2], the “Calcium Concentration in Serum” value is listed as 11.8 mg/dL. The “Urinary excretion of calcium (FIG. 1)” value in series [3] is “no significant increase in urinary excretion of calcium”. Moreover, the “Metabolic Rate” value in series [4] is on record as 78 pmol/min/mg.
Regarding `C=C1C(=CC=C2CCCC3(C)C2CCC3C(C)OC(=O)CCCC(C)(C)O)CC(O)CC1O` [Compound of Example 3, (1S,3R,20S)-20-(5-Hydroxy-5-methylhexanoyloxy)-9,10-secopregna-5Z,7E,10(19)-trien-1,3-diol], the EC50 in series [1] was 2.6 nM. Further, in series [5], the “Urinary excretion of calcium” value came out at 0.66 mg and the “Ratio of urinary excretion of calcium (to Control)” value stood at 93%. Further, the “Metabolic Rate” value in series [4] is 22 pmol/min/mg.
As for `C=C1C(=CC=C2CCCC3(C)C2CCC3C(C)OC(=O)CC(C)(O)C(F)(F)F)CC(O)CC1O` [Compound of Example 4, (1S,3R,20S)-20-(4,4,4-Trifluoro-3-hydroxy-3-methylbutanoyloxy)-9,10-secopregna-5Z,7E,10(19)-trien-1,3-diol], in series [1], the EC50 stood at 0.21 nM.
On the same count and under the same terms, the same measure for `C=C1C(=CC=C2CCCC3(C)C2CCC3C(C)OC(=O)CC(O)C(C)C)CC(O)CC1O` [Compound of Example 5, (1S,3R,20S)-20-(3-Hydroxy-4-methylpentanoyloxy)-9,10-secopregna-5Z,7E,10(19)-trien-1,3-diol]: 1.1 nM; for `C=C1C(=CC=C2CCCC3(C)C2CCC3C(C)OC(=O)CC(O)(C(F)(F)F)C(F)(F)F)CC(O)CC1O` [Compound of Example 7, (1S,3R,20S)-20-[4,4,4-Trifluoro-3-hydroxy-3-(trifluoromethyl)butanoyloxy]-9,10-secopregna-5Z,7E,10(19)-trien-1,3-diol]: 0.44 nM.
Turning to `C=C1/C(=C\C=C2/CCC[C@]3(C)[C@@H]([C@H](C)OC(=O)/C=C/C(C)(C)O)CC[C@@H]23)C[C@@H](O)C[C@@H]1O` [Compound of Example 8, (1S,3R,20S)-20-[(2E)-4-Hydroxy-4-methylpent-2-enoyloxy]-9,10-secopregna-5Z,7E,10(19)-trien-1,3-diol], in series [1], the EC50 was found to be 3.1 nM. Further, in series [5], the “Urinary excretion of calcium” value is 0.89 mg and the “Ratio of urinary excretion of calcium (to Control)” value came out at 125%. In series [4], the “Metabolic Rate” value was 38 pmol/min/mg.
`C=C1C(=CC=C2CCCC3(C)C2CCC3C(C)OC(=O)C=CC(O)(CC)CC)CC(O)CC1O` [Compound of Example 10, (1S,3R,20S)-20-[(2E)-4-Ethyl-4-hydroxyhex-2-enoyloxy]-9,10-secopregna-5Z,7E,10(19)-trien-1,3-diol]: in series [1], the EC50 was 1.2 nM. For the same compound, in series [4], the “Metabolic Rate” value is 58 pmol/min/mg.
`C=C1C(=CC=C2CCCC3(C)C2CCC3C(C)OC(=O)CC(CC)C(C)O)CC(O)CC1O` [Compound of Example 12, (1S,3R,20S)-20-(3-Ethyl-4-hydroxypentanoyloxy)-9,10-secopregna-5Z,7E,10(19)-trien-1,3-diol]: in series [1], the EC50 was determined as 4.2 nM.
`C=C1C(=CC=C2CCCC3(C)C2CCC3C(C)OC(=O)CCC(O)(CC)CC)CC(O)CC1O` [Compound of Example 13, (1S,3R,20S)-20-(4-Ethyl-4-hydroxyhexanoyloxy)-9,10-secopregna-5Z,7E,10(19)-trien-1,3-diol]: the EC50 in series [1] came out at 2.3 nM. Besides, the “Metabolic Rate” value in series [4] turned out to be 38 pmol/min/mg.
As for `C=C1C(=CC=C2CCCC3(C)C2CCC3C(C)OC(=O)CN(C)CC(C)(C)O)CC(O)CC1O` [Compound of Example 19, (1S,3R,20S)-20-[N-(2-Hydroxy-2-methylpropyl)-N-methyl-2-aminoacetyloxy]-9,10-secopregna-5Z,7E,10(19)-trien-1,3-diol], the EC50 in series [1] was 4 nM.
Consider `C=C1C(=CC=C2CCCC3(C)C2CCC3C(C)OC(=O)CCC2(O)CCCC2)CC(O)CC1O` [Compound of Example 20, (1S,3R,20S)-20-[3-(1-Hydroxycyclopentyl)propanoyloxy]-9,10-secopregna-5Z,7E,10(19)-trien-1,3-diol], for which the EC50 in series [1] is 1.7 nM. In series [4], the “Metabolic Rate” value is 39 pmol/min/mg.
On to `C=C1C(=CC=C2CCCC3(C)C2CCC3C(C)OC(=O)CC(=O)C(C)(C)O)CC(O)CC1O` [Compound of Example 27, (1S,3R,20S)-20-(4-Hydroxy-4-methyl-3-oxo-pentanoyloxy)-9,10-secopregna-5Z,7E,10(19)-trien-1,3-diol], for which, in series [1], the EC50 worked out at 3 nM.
On the same count and under the same terms, the same measure for `C=C1C(=CC=C2CCCC3(C)C2CCC3C(C)OC(=O)CC(=O)C(O)(CC)CC)CC(O)CC1O` [Compound of Example 28, (1S,3R,20S)-20-(4-Ethyl-4-hydroxy-3-oxo-hexanoyloxy)-9,10-secopregna-5Z,7E,10(19)-trien-1,3-diol]: 2.5 nM.
Consider “(1S,3R,20S)-20-(5-Hydroxy-5-methylheptanoyloxy)-9,10-secopregna-5Z,7E,10(19)-trien-1,3-diol [Compound of Example 11]”, for which the EC50 in series [1] turned out to be 4.3 nM. Also, the “Metabolic Rate” value in series [4] turned out to be 23 pmol/min/mg.

(Values after patent US20100130454A1, “9,10-SECOPREGNANE DERIVATIVES AND MEDICINE” (NIPPON SHINYAKU CO., LTD., priority 2004, published 2010).)
